Test results as given in patent US12371454B2, “Cyclic peptide compound having Kras inhibitory action” (priority 2019, dated 2025).
Starred links: 1 amine or outer side, 2 acyl side, 3 side chain; linkers in the order of their positions; H or OH if unused. Positions of bridges follow the written chain, without caps; N, C: chain ends. Non-standard residues stand in square brackets, D forms with d. Residues, ends and D or L forms follow the SMILES beside them. *: point of attachment. hPhe(3-Cl-4-CF3) = N[C@@H](CCc1ccc(C(F)(F)F)c(Cl)c1)C(=O)O; NMePhe(4-CF3) = CN[C@@H](Cc1ccc(C(F)(F)F)cc1)C(=O)O; NMePhe(4-Cl) = CN[C@@H](Cc1ccc(Cl)cc1)C(=O)O; NMedβ3hAla = C[C@H](CC(=O)[*:2])N(C)[*:1]; Leu(4,5-dehydro) = C=C(C)C[C@H](N)C(=O)O; NMeAla(cPent) = CN[C@@H](CC1CCCC1)C(=O)O; Phe(3-Br) = N[C@@H](Cc1cccc(Br)c1)C(=O)O; NMeGly(cPent) = CN[C@H](C(=O)O)C1CCCC1; Phe(3-I) = N[C@@H](Cc1cccc(I)c1)C(=O)O; X10 = CC(C)=CC[C@H](N[*:1])C(=O)[*:2]; NMeY = CN[C@@H](Cc1ccc(O)cc1)C(=O)O; NMeCha = CN[C@@H](CC1CCCCC1)C(=O)O; NMeAoc(2) = CCCCCC[C@H](NC)C(=O)O; dNMeF = CN[C@H](Cc1ccccc1)C(=O)O; hPhe = N[C@@H](CCc1ccccc1)C(=O)O; NMeD = CN[C@@H](CC(=O)O)C(=O)O; AllylGly = C=CC[C@H](N)C(=O)O; NMeL = CN[C@@H](CC(C)C)C(=O)O; Cba = N[C@@H](CC1CCC1)C(=O)O; hLeu = CC(C)CC[C@H](N)C(=O)O; NMeA = CN[C@@H](C)C(=O)O; NMeAib = CNC(C)(C)C(=O)O; Nle = CCCC[C@H](N)C(=O)O; Piperidide = C1CCN(*)CC1; Pra = C#CC[C@H](N)C(=O)O; Pyrrolidide = C1CCN(*)C1; Ac5c = NC1(C(=O)O)CCCC1; Aze = O=C(O)[C@@H]1CCN1; Sar = CNCC(=O)O

molecular target: T1, Kras and SOS1 (biotin-tagged human Kras loaded with GDP, His-tagged human SOS1) (Homo sapiens, UniProt P01116, G12D); experiment: Protein-protein interaction inhibition between Kras and SOS1 (KrasGl2D-SOS PPI) using AlphaScreen; type: binding; conditions: AlphaScreen; biotin-tagged human Kras loaded with GDP, His-tagged human SOS1; read-out: KRAS G12D-SOS PPI IC50
T1 construct: made in house; host or cells: E. coli (stated for Kras only)
How it was run: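 Donor beads (nickel) hold His-SOS1; acceptor beads (streptavidin) hold biotin-Kras bound to GDP. Signal measured at 520-620 nm following 680 nm excitation.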

T1 sequence (P01116 1-188 isoform P01116-2 G12D): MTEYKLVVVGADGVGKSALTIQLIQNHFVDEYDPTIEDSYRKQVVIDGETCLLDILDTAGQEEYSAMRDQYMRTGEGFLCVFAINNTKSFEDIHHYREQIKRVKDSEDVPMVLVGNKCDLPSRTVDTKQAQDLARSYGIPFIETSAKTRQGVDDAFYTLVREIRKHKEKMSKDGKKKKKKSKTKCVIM

Compound | IC50
CCCC[C@@H]1NC(=O)[C@H](Cc2cccc(Br)c2)NC(=O)CN(C)C(=O)[C@H](Cc2ccc(Cl)cc2)N(C)C(=O)[C@@H]2CCN2C(=O)[C@H](C)N(C)C(=O)[C@H]([C@@H](C)CC)NC(=O)[C@H](CC(C)C)N(C)C(=O)C[C@@H](C(=O)N2CCCCC2)N(C)C(=O)[C@H](CC(C)C)NC(=O)C(C)(C)N(C)C1=O [Compound 1415] ([NMeL]I[NMeA][Aze][NMePhe(4-Cl)][Sar][Phe(3-Br)][Nle][NMeAib]L[NMeD]-Piperidide; lactam N-11) | 34 nM
CCCC[C@@H]1NC(=O)[C@H](Cc2cccc(I)c2)NC(=O)CN(C)C(=O)[C@H](CC2CCCCC2)N(C)C(=O)CN(C)C(=O)CN(C)C(=O)[C@H]([C@@H](C)CC)NC(=O)[C@H](CC(C)C)N(C)C(=O)C[C@@H](C(=O)N2CCCCC2)N(C)C(=O)[C@H](CC(C)C)NC(=O)C(C)(C)N(C)C1=O [Compound 1416] ([NMeL]I[Sar][Sar][NMeCha][Sar][Phe(3-I)][Nle][NMeAib]L[NMeD]-Piperidide; lactam N-11) | 97 nM
CCCCCC[C@H]1C(=O)N[C@@H]([C@@H](C)CC)C(=O)N(C)CC(=O)N2CC[C@H]2C(=O)N(C)[C@@H](Cc2ccc(OC)cc2)C(=O)N(C)CC(=O)N[C@@H](Cc2cccc(I)c2)C(=O)N[C@@H](CCCC)C(=O)N(C)C(C)(C)C(=O)N[C@@H](CC(C)C)C(=O)N(C)[C@H](C(=O)N2CCCCC2)CC(=O)N1C [Compound 1417] ([NMeAoc(2)]I[Sar][Aze][NMeY](Me)[Sar][Phe(3-I)][Nle][NMeAib]L[NMeD]-Piperidide; lactam N-11) | 29 nM
CC[C@H](C)[C@@H]1NC(=O)[C@H](CC(C)C)N(C)C(=O)C[C@@H](C(=O)N2CCCCC2)N(C)C(=O)[C@H](CC(C)C)NC(=O)C(C)(C)N(C)C(=O)[C@H](CC=C(C)C)NC(=O)[C@H](Cc2cccc(I)c2)NC(=O)CN(C)C(=O)[C@H](Cc2ccc(Cl)cc2)N(C)C(=O)[C@@H]2CCN2C(=O)[C@H](C)N(C)C1=O [Compound 1419] ([NMeL]I[NMeA][Aze][NMePhe(4-Cl)][Sar][Phe(3-I)][X10][NMeAib]L[NMeD]-Piperidide; lactam N-11) | 46 nM
CCCC[C@@H]1NC(=O)[C@H](Cc2cccc(I)c2)NC(=O)CN(C)C(=O)[C@H](CC2CCCCC2)N(C)C(=O)[C@@H]2CCN2C(=O)CN(C)C(=O)[C@H]([C@@H](C)CC)NC(=O)[C@H](CC(C)C)N(C)C(=O)C[C@@H](C(=O)N2CCCCC2)N(C)C(=O)[C@H](CC(C)C)NC(=O)C(C)(C)N(C)C1=O [Compound 1420] ([NMeL]I[Sar][Aze][NMeCha][Sar][Phe(3-I)][Nle][NMeAib]L[NMeD]-Piperidide; lactam N-11) | 89 nM
C=C(C)C[C@@H]1NC(=O)[C@H](Cc2cccc(I)c2)NC(=O)CN(C)C(=O)[C@H](Cc2ccc(Cl)cc2)N(C)C(=O)CN(C)C(=O)CN(C)C(=O)[C@H]([C@@H](C)CC)NC(=O)[C@H](CC(C)C)N(C)C(=O)C[C@@H](C(=O)N2CCCCC2)N(C)C(=O)[C@H](CC(C)C)NC(=O)C(C)(C)N(C)C1=O [Compound 1421] ([NMeL]I[Sar][Sar][NMePhe(4-Cl)][Sar][Phe(3-I)][Leu(4,5-dehydro)][NMeAib]L[NMeD]-Piperidide; lactam N-11) | 32 nM
CCCC[C@@H]1NC(=O)[C@H](Cc2cccc(I)c2)NC(=O)CN(C)C(=O)[C@H](Cc2ccc(Cl)cc2)N(C)C(=O)CN(C)C(=O)CN(C)C(=O)[C@H]([C@@H](C)CC)NC(=O)[C@H](CC(C)C)N(C)C(=O)C[C@@H](C(=O)N2CCCCC2)N(C)C(=O)[C@H](CC2CCC2)NC(=O)C(C)(C)N(C)C1=O [Compound 1422] ([NMeL]I[Sar][Sar][NMePhe(4-Cl)][Sar][Phe(3-I)][Nle][NMeAib][Cba][NMeD]-Piperidide; lactam N-11) | 16 nM
CCCC[C@@H]1NC(=O)[C@H](Cc2cccc(I)c2)NC(=O)CN(C)C(=O)[C@H](CC2CCCC2)N(C)C(=O)CN(C)C(=O)CN(C)C(=O)[C@H]([C@@H](C)CC)NC(=O)[C@H](CC(C)C)N(C)C(=O)C[C@@H](C(=O)N2CCCCC2)N(C)C(=O)[C@H](CC(C)C)NC(=O)C(C)(C)N(C)C1=O [Compound 1423] ([NMeL]I[Sar][Sar][NMeAla(cPent)][Sar][Phe(3-I)][Nle][NMeAib]L[NMeD]-Piperidide; lactam N-11) | 190 nM
C#CC[C@@H]1NC(=O)[C@H](Cc2cccc(I)c2)NC(=O)CN(C)C(=O)[C@H](Cc2ccc(C(F)(F)F)cc2)N(C)C(=O)[C@@H]2CCN2C(=O)CN(C)C(=O)[C@H]([C@@H](C)CC)NC(=O)[C@H](CC(C)C)N(C)C(=O)C[C@@H](C(=O)N2CCCCC2)N(C)C(=O)[C@H](CC(C)C)NC(=O)C(C)(C)N(C)C1=O [Compound 1425] ([NMeL]I[Sar][Aze][NMePhe(4-CF3)][Sar][Phe(3-I)][Pra][NMeAib]L[NMeD]-Piperidide; lactam N-11) | 19 nM
C#CC[C@@H]1NC(=O)[C@H](Cc2cccc(I)c2)NC(=O)CN(C)C(=O)[C@H](Cc2ccc(Cl)cc2)N(C)C(=O)CN(C)C(=O)CN(C)C(=O)[C@H]([C@@H](C)CC)NC(=O)[C@H](CC(C)C)N(C)C(=O)C[C@@H](C(=O)N2CCCCC2)N(C)C(=O)[C@H](CC(C)C)NC(=O)C(C)(C)N(C)C1=O [Compound 1426] ([NMeL]I[Sar][Sar][NMePhe(4-Cl)][Sar][Phe(3-I)][Pra][NMeAib]L[NMeD]-Piperidide; lactam N-11) | 48 nM
C#CC[C@@H]1NC(=O)[C@H](Cc2cccc(I)c2)NC(=O)CN(C)C(=O)[C@H](Cc2ccc(C(F)(F)F)cc2)N(C)C(=O)[C@@H]2CCN2C(=O)CN(C)C(=O)[C@H]([C@@H](C)CC)NC(=O)[C@H](CC(C)C)N(C)C(=O)C[C@@H](C)N(C)C(=O)[C@H](CC(C)C)NC(=O)C(C)(C)N(C)C1=O [Compound 1427] (cyclo([Aze][NMePhe(4-CF3)][Sar][Phe(3-I)][Pra][NMeAib]L[NMedβ3hAla][NMeL]I[Sar])) | 250 nM
C#CC[C@@H]1NC(=O)[C@H](Cc2cccc(I)c2)NC(=O)CN(C)C(=O)[C@H](Cc2ccc(Cl)cc2)N(C)C(=O)[C@@H]2CCN2C(=O)[C@H](C)N(C)C(=O)[C@H]([C@@H](C)CC)NC(=O)[C@H](CC(C)C)N(C)C(=O)C[C@@H](C(=O)N2CCCCC2)N(C)C(=O)[C@H](CC(C)C)NC(=O)C(C)(C)N(C)C1=O [Compound 1428] ([NMeL]I[NMeA][Aze][NMePhe(4-Cl)][Sar][Phe(3-I)][Pra][NMeAib]L[NMeD]-Piperidide; lactam N-11) | 42 nM
C=C(C)C[C@@H]1NC(=O)[C@H](Cc2cccc(I)c2)NC(=O)CN(C)C(=O)[C@H](Cc2ccc(Cl)cc2)N(C)C(=O)[C@@H]2CCN2C(=O)[C@H](C)N(C)C(=O)[C@H]([C@@H](C)CC)NC(=O)[C@H](CC(C)C)N(C)C(=O)C[C@@H](C(=O)N2CCCCC2)N(C)C(=O)[C@H](CC(C)C)NC(=O)C(C)(C)N(C)C1=O [Compound 1429] ([NMeL]I[NMeA][Aze][NMePhe(4-Cl)][Sar][Phe(3-I)][Leu(4,5-dehydro)][NMeAib]L[NMeD]-Piperidide; lactam N-11) | 44 nM
CCCC[C@@H]1NC(=O)[C@H](Cc2cccc(I)c2)NC(=O)CN(C)C(=O)[C@H](Cc2ccc(Cl)cc2)N(C)C(=O)CN(C)C(=O)CN(C)C(=O)[C@H]([C@@H](C)CC)NC(=O)[C@H](CC(C)C)N(C)C(=O)C[C@@H](C(=O)N2CCCC2)N(C)C(=O)[C@H](CCc2ccccc2)NC(=O)C(C)(C)N(C)C1=O [Compound 1430] ([NMeL]I[Sar][Sar][NMePhe(4-Cl)][Sar][Phe(3-I)][Nle][NMeAib][hPhe][NMeD]-Pyrrolidide; lactam N-11) | 400 nM
C=CC[C@@H]1NC(=O)[C@H](Cc2cccc(I)c2)NC(=O)CN(C)C(=O)[C@H](Cc2ccc(Cl)cc2)N(C)C(=O)CN(C)C(=O)CN(C)C(=O)[C@H]([C@@H](C)CC)NC(=O)[C@H](CC(C)C)N(C)C(=O)C[C@@H](C(=O)N2CCCC2)N(C)C(=O)[C@H](CC(C)C)NC(=O)C(C)(C)N(C)C1=O [Compound 1431] ([NMeL]I[Sar][Sar][NMePhe(4-Cl)][Sar][Phe(3-I)][AllylGly][NMeAib]L[NMeD]-Pyrrolidide; lactam N-11) | 220 nM
CCCC[C@@H]1NC(=O)[C@H](Cc2cccc(I)c2)NC(=O)CN(C)C(=O)[C@H](CC2CCCC2)N(C)C(=O)[C@@H]2CCN2C(=O)[C@H](C)N(C)C(=O)[C@H]([C@@H](C)CC)NC(=O)[C@H](CC(C)C)N(C)C(=O)C[C@@H](C(=O)N2CCCCC2)N(C)C(=O)[C@H](CC(C)C)NC(=O)C(C)(C)N(C)C1=O [Compound 1432] ([NMeL]I[NMeA][Aze][NMeAla(cPent)][Sar][Phe(3-I)][Nle][NMeAib]L[NMeD]-Piperidide; lactam N-11) | 260 nM
CCCC[C@@H]1NC(=O)[C@H](Cc2cccc(I)c2)NC(=O)CN(C)C(=O)[C@H](Cc2ccc(C(F)(F)F)cc2)N(C)C(=O)CN(C)C(=O)CN(C)C(=O)[C@H]([C@@H](C)CC)NC(=O)[C@H](CC(C)C)N(C)C(=O)C[C@@H](C(=O)N2CCCCC2)N(C)C(=O)[C@H](CCC(C)C)NC(=O)C(C)(C)N(C)C1=O [Compound 1433] ([NMeL]I[Sar][Sar][NMePhe(4-CF3)][Sar][Phe(3-I)][Nle][NMeAib][hLeu][NMeD]-Piperidide; lactam N-11) | 29 nM
CC[C@H](C)[C@@H]1NC(=O)[C@H](CC(C)C)N(C)C(=O)C[C@@H](C(=O)N2CCCCC2)N(C)C(=O)[C@H](C2CCCC2)N(C)C(=O)C2(CCCC2)NC(=O)[C@@H](Cc2ccccc2)N(C)C(=O)[C@H](CCc2ccc(C(F)(F)F)c(Cl)c2)NC(=O)CN(C)C(=O)[C@H](CC2CCCCC2)N(C)C(=O)[C@@H]2CCN2C(=O)[C@H](C)N(C)C1=O [Compound 1434] ([NMeL]I[NMeA][Aze][NMeCha][Sar][hPhe(3-Cl-4-CF3)][dNMeF][Ac5c][NMeGly(cPent)][NMeD]-Piperidide; lactam N-11) | 150 nM
